ChEMBL document CHEMBL5291721, “A preclinical secondary pharmacology resource illuminates target-adverse drug reaction associations of marketed drugs” (Nat Commun, 2023)

How the values were obtained:
[1] = molecular target: T1, Endothelin receptor type B (Homo sapiens, UniProt P24530)
T1 sequence (P24530 whole entry): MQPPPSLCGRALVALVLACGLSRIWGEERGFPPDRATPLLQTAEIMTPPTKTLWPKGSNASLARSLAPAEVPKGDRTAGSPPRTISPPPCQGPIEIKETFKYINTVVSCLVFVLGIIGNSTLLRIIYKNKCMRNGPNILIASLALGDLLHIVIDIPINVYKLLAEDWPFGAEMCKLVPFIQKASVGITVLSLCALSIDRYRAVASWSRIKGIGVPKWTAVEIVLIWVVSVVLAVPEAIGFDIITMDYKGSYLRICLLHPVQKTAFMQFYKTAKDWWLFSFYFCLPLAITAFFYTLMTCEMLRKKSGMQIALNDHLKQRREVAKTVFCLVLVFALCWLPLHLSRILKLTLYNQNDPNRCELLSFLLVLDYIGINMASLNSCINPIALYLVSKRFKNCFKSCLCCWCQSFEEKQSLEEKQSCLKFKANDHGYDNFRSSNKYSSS

[2] = molecular target: Neurotensin receptor type 1 (Homo sapiens, UniProt P30989)
Adenosine receptor A3 = molecular target: T2, Adenosine receptor A3 (Homo sapiens, UniProt P0DMS8)
T2 sequence (P0DMS8 whole entry): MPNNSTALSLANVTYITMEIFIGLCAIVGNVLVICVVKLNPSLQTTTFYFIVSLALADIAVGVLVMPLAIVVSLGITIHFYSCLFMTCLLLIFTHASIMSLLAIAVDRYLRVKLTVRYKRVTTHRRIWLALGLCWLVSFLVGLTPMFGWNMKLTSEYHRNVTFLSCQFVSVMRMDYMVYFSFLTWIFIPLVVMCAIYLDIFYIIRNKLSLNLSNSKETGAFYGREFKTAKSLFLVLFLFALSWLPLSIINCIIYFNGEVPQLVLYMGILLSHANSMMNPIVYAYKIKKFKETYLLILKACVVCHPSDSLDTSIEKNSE

D(3) dopamine receptor = D(3) dopamine receptor (Homo sapiens, UniProt P35462)
[3] = molecular target: T3, 5-hydroxytryptamine receptor 1A (Homo sapiens, UniProt P08908)
T3 sequence (P08908 whole entry): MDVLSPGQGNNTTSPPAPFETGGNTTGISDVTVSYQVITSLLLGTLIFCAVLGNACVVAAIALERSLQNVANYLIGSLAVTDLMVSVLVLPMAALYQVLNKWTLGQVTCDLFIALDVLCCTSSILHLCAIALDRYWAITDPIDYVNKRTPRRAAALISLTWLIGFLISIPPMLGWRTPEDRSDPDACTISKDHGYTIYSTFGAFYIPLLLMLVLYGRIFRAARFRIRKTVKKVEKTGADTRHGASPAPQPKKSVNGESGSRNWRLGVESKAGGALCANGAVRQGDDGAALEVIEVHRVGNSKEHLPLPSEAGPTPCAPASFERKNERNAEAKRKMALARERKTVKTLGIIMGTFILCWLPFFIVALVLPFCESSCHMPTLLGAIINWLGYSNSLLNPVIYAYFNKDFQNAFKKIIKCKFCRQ

[4] = molecular target: 5-hydroxytryptamine receptor 2B (Homo sapiens, UniProt P41595); assay type: functional, cell-based
Mu-type opioid receptor = Mu-type opioid receptor (Homo sapiens, UniProt P35372)
Progesterone receptor = molecular target: T4, Progesterone receptor (Homo sapiens, UniProt P06401)
T4 sequence (P06401 whole entry): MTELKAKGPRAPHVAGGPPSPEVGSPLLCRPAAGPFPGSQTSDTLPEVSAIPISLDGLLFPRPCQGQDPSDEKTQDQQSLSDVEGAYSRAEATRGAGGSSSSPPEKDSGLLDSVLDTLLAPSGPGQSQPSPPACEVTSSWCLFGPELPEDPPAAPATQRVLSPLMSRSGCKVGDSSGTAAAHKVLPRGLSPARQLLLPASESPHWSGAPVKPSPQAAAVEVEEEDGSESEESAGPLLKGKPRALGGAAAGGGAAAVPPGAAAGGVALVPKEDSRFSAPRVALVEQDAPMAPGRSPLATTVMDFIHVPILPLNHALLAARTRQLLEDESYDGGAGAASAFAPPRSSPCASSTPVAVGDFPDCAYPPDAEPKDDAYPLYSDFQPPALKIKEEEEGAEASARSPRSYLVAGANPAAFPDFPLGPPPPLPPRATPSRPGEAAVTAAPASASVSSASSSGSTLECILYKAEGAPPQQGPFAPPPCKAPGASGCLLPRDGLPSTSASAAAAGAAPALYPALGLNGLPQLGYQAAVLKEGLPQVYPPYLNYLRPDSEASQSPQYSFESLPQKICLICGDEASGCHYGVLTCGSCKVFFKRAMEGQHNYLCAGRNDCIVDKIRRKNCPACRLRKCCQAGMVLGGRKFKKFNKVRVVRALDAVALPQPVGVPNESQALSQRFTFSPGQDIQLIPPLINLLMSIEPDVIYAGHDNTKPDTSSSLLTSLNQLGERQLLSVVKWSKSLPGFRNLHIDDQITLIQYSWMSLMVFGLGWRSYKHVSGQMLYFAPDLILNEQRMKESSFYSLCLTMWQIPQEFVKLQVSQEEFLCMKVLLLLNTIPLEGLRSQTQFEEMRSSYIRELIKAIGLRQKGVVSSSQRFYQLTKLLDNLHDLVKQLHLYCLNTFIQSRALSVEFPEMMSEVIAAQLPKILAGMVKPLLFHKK

[5] = molecular target: Sodium-dependent noradrenaline transporter (Homo sapiens, UniProt P23975)
[6] = molecular target: T5, Peroxisome proliferator-activated receptor gamma (Homo sapiens, UniProt P37231); assay type: functional
T5 sequence (P37231 whole entry): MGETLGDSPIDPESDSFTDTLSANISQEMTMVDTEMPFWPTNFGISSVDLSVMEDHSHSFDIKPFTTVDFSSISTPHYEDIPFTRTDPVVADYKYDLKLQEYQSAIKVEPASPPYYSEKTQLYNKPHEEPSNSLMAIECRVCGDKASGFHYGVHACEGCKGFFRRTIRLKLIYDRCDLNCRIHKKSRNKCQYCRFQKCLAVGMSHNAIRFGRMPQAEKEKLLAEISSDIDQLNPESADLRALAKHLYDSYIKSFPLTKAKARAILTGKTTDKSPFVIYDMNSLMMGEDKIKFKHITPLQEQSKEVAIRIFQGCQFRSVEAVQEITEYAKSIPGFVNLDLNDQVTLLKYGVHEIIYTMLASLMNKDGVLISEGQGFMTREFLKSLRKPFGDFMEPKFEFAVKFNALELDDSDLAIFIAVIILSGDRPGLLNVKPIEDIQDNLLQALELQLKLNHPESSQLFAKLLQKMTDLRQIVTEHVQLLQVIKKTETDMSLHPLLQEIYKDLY
Note: assay procedure not described here.

Neurotensin receptor type 1, sequence (P30989 whole entry): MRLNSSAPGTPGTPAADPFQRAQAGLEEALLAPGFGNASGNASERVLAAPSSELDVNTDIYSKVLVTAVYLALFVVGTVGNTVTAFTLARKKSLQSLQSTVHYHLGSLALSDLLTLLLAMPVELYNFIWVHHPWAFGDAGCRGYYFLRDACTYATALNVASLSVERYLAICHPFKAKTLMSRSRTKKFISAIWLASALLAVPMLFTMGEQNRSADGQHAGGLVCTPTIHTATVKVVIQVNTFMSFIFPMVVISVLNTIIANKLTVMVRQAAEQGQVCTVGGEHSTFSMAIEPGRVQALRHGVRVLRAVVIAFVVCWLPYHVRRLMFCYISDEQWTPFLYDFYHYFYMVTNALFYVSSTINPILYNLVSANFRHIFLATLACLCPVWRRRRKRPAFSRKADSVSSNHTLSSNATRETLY
D(3) dopamine receptor, sequence (P35462 whole entry): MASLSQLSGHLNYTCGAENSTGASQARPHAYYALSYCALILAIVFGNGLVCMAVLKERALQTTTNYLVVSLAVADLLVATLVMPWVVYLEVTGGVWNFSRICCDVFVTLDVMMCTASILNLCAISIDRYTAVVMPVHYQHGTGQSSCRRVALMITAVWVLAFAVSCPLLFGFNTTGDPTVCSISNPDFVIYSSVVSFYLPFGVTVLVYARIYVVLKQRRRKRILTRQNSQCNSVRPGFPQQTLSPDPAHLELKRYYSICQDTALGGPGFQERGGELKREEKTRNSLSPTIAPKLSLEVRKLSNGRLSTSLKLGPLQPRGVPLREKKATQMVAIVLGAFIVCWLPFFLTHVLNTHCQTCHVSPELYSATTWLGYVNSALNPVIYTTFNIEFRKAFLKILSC
5-hydroxytryptamine receptor 2B, sequence (P41595 whole entry): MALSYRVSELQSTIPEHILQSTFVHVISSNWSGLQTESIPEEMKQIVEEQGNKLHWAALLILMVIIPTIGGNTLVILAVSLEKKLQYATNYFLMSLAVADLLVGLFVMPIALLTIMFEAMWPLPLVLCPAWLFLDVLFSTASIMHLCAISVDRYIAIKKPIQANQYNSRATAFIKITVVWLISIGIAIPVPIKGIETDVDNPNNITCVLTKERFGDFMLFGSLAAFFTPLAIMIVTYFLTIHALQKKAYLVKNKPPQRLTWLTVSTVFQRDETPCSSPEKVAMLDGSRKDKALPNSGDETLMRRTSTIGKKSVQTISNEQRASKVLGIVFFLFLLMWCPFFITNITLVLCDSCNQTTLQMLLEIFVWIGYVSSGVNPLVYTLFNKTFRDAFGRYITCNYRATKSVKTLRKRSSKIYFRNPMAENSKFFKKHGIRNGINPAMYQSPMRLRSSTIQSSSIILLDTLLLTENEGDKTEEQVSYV
Mu-type opioid receptor, sequence (P35372 whole entry): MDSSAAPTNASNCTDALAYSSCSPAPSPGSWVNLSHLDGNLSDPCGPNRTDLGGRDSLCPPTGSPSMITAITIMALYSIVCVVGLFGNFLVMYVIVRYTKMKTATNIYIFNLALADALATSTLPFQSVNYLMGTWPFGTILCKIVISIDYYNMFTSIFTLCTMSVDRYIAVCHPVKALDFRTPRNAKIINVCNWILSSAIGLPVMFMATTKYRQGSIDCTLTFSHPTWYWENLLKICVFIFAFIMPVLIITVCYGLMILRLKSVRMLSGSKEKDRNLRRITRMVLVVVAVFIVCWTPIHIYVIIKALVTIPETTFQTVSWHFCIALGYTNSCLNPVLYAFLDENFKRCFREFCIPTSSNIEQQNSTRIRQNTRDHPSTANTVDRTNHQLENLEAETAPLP
Sodium-dependent noradrenaline transporter, sequence (P23975 whole entry): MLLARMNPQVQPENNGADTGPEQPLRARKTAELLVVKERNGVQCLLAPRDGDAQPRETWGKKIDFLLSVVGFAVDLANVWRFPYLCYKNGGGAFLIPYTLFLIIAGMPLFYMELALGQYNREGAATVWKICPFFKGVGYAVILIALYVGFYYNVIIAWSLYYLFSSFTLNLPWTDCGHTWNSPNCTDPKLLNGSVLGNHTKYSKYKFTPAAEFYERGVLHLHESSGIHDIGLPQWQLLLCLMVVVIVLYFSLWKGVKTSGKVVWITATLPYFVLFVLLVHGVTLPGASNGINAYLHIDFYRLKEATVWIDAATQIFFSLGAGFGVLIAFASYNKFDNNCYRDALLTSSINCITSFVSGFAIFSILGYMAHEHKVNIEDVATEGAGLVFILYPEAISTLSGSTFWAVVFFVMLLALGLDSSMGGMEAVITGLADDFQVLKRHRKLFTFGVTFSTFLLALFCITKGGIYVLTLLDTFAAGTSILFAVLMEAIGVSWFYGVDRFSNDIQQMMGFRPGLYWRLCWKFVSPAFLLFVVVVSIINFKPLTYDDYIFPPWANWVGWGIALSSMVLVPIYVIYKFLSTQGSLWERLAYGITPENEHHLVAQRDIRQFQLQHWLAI

Structure (SMILES)	AC50 [1] [µM]	AC50 [2] [µM]	AC50 (Adenosine receptor A3) [µM]	AC50 (D(3) dopamine receptor) [µM]	AC50 [3] [µM]	AC50 [4] [µM]	AC50 (Mu-type opioid receptor) [µM]	AC50 (Progesterone receptor) [µM]	AC50 [5] [µM]	AC50 [6] [µM]
Cn1c(=O)cc(N2CCC[C@@H](N)C2)n(Cc2ccccc2C#N)c1=O [ALOGLIPTIN]	> 30	> 30	–	–	–	–	–	–	–	–
Nc1c2ccccc2nc2ccccc12 [AMINACRINE]	–	–	9.62	> 30	> 30	> 30	13.8	> 30	2.95	–
Oc1ccc2c(c1)[C@@]13CCCC[C@@]1(O)[C@@H](C2)N(CC1CCC1)CC3 [BUTORPHANOL]	–	–	–	–	–	–	–	–	–	> 30
CC(=O)OCC(=O)[C@@]1(O)[C@H](C)C[C@H]2[C@@H]3CCC4=CC(=O)C=C[C@]4(C)[C@@]3(F)[C@@H](O)C[C@@]21C [DEXAMETHASONE ACETATE]	> 30	> 30	–	–	–	–	–	–	–	–
CCN1CCCC1CNC(=O)c1cc(S(=O)(=O)CC)c(N)cc1OC (stereo not given) [AMISULPRIDE]	–	–	–	–	–	–	–	–	–	> 30
O=C(O)CCCCC1CCSS1 (stereo not drawn) [LIPOIC ACID, ALPHA]	–	–	> 30	> 30	> 30	> 30	> 30	> 30	> 30	–
